Experiment [1] deals with BTK Activity in RAMOS B Cells. Description: Assay to determine BTK activity in RAMOS B cells (anti-IgM, FLIPR Calcium 6). It is filed as cell-based. The settings on record: EC80 anti-IgM, FLIPR calcium read. On the procedure:
On the day before assay, Ramos B cells were plated in plating medium (RPMI1640 medium containing 1% FBS and 1× pencillin-streptomycin). On the day of the assay, 2× dye solution was prepared following the manual of the FLIRP Calcium 6 Assay Kit: Dilute the dye with assay buffer (20 mM HEPES in 1×HBSS, pH7.4); Add probenecid to the final concentration of 5 mM; vortex vigorously for 1-2 minutes. Cells were collected by centrifuging, and the pellet was resuspended in plating medium. After counting, cells were resuspended at a density of 3×10^6/ml in plating medium. Equal volume of 2× dye solution was added to the cell suspension. Cells were then plated at 20 μl/well into a 384-well poly-D-lysine coated plate. Plate was centrifuged at 1000 rpm for 3 minutes and then incubated at 37° C. for 2 hours followed by an additional 15-minute incubation at 25° C. Compounds were prepared at 3× concentration in dilution buffer (20 mM HEPES and 0.1% BSA in 1×HBSS, pH 7.4). Serially diluted compound was transferred from source plate to a 384-well compound plate by using an Echo 550 (Labcyte). 20 μl/well compound dilution buffer was added to the compound plate and mixed on plate shaker for 2 mins. 4×EC80 of Anti-IgM (Jackson ImmunoResearch) was prepared in dilution buffer and 20 μl/well was added to a new 384-well compound plate. After 60 mins of incubation at 25° C. in the dark; cell plate, compound plate containing 4×EC80 of anti-IgM and FLIPR tips were placed into FLIPR (Molecular Devices). 10 ul/well of 4×EC80 anti-IgM was transferred to the cell plate by FLIPR. Plates were read for 160 sec with 1 sec interval.
With respect to Ramos activity, Table 9 lists activity as follows: • “A” denotes an IC50 of less than 10 nM; • “B” denotes an IC50 of from 10 nM to less than 100 nM; and • “C” denotes and IC50 of 100 nM or more.

A further experiment addresses BTK (Homo sapiens, UniProt Q06187). As to the kind of experiment: Assay to determine activity against BTK (EZ reader, FLPeptide). It is filed as biochemical. The arrangement: purchased Carna. The settings on record: ATP (1 mM), BTK (2 nM), room temperature for 90 minutes. On the procedure: Solutions of compounds (test or control) in DMSO were prepared at the desired concentrations, and serially diluted to 11 concentrations by 3-fold dilution in 384pp-plate using TECAN EVO200. 20 nL of stock were transferred to 384 plate using Echo550. DMSO was used as vehicle control.
Two separate solutions were prepared—an ATP solution containing MgCl2 (10 mM), Brij-35 (0.01%), DTT (2 mM), BSA (0.05%), EGTA (1 mM), HEPE (pH7.5) (50 mM), FLPeptide (6 uM) and ATP (4 mM); and a BTK solution containing MgCl2 (10 mM), Brij-35 (0.01%), DTT (2 mM), BSA (0.05%), EGTA (1 mM), HEPE (pH7.5) (50 mM) and BTK (2.67 nM). […] (Note the final volume of each well was 20 uL containing MgCl2 (10 mM), Brij-35 (0.01%), DTT (2 mM), BSA (0.05%), EGTA (1 mM), HEPE (pH7.5) (50 mM), FLPeptide (1.5 uM), ATP (1 mM) and BTK (2 nM).
The plates were incubated at room temperature for 90 minutes and then stopping buffer added (75 uL, containing 0.5 M EDTA) to terminate the reaction. Samples from each well were analyzed using EZ reader. The % remaining activity was calculated using read conversion ratio (CR) according to the equation: […]
XLFit (equation 201) was used to calculate IC50s by floating both bottom and top.
With respect to BTK activity, Table 4 lists activity as follows: • “A” denotes an IC50 of less than 10 nM, • “B” denotes an IC50 of from 10 nM to less than 100 nM; and • “C” denotes and IC50 of 100 nM or more.

Where only a bound is given, the exact number is not on record here.

The values below come from patent US12448363B2, “Kinase inhibitors” (Vidya Therapeutics, Inc., priority 2020, dated 2025).

Sequence of BTK (Q06187 whole entry): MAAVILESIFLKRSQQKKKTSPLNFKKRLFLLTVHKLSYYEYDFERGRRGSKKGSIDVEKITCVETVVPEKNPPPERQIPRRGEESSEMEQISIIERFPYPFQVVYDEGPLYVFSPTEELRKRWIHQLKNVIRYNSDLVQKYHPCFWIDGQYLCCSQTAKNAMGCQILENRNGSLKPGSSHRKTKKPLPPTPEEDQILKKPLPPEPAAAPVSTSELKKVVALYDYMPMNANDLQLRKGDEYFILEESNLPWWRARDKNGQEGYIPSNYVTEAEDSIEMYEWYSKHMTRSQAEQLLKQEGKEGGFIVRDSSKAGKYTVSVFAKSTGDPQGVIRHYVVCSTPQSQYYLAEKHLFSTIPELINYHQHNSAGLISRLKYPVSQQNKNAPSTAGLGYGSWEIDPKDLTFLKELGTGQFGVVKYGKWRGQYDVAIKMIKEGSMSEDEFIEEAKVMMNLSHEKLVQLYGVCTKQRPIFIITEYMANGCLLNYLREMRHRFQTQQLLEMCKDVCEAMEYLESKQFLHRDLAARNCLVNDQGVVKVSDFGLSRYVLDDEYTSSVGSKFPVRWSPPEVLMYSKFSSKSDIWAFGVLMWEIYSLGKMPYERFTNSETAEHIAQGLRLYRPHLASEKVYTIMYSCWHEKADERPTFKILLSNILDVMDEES

As usually defined, the IC50 is the concentration that gives 50% inhibition. Regarding `C=CC(=O)N1CCc2c(cccc2-c2c(F)cc(C(N)=O)c3[nH]c(C)c(F)c23)C1` (atropisomer, axis not shown) [Compound 20e, (S)-4-(2-acryloyl-1,2,3,4-tetrahydroisoquinolin-5-yl)-3,5-difluoro-2-methyl-1H-indole-7-carboxamide], the IC50 (in experiment [1]; at BTK) was < 10 nM throughout.
For the molecule `C=CC(=O)N1CCc2c(cccc2-c2c(F)cc(C(N)=O)c3[nH]c(C)c(F)c23)C1` (atropisomer, axis not shown) [Compound 20f, (R)-4-(2-acryloyl-1,2,3,4-tetrahydroisoquinolin-5-yl)-3,5-difluoro-2-methyl-1H-indole-7-carboxamide], the IC50 (in experiment [1]; against BTK) was ≥ 100 nM each time.
Regarding `C=CC(=O)N1CCc2c(cccc2-c2c(F)cc(C(N)=O)c3[nH]c(C)c(C#N)c23)C1` (atropisomer, axis not shown) [Compound 20h, (S)-4-(2-acryloyl-1,2,3,4-tetrahydroisoquinolin-5-yl)-3-cyano-5-fluoro-2-methyl-1H-indole-7-carboxamide], the IC50 (in experiment [1]; at BTK) was ≥ 100 nM in each case.
Take `C=CC(=O)N1CCc2c(cccc2-c2c(F)cc(C(N)=O)c3[nH]c(C)c(C#N)c23)C1` (atropisomer, axis not shown) [Compound 20i, (R)-4-(2-acryloyl-1,2,3,4-tetrahydroisoquinolin-5-yl)-3-cyano-5-fluoro-2-methyl-1H-indole-7-carboxamide]: the IC50 in experiment [1] was 10 to 100 nM; against BTK, < 10 nM.
In the case of `C=CC(=O)N1CCc2c(cccc2-c2c(F)c(F)c(C(N)=O)c3[nH]c(C)c(Cl)c23)C1` (atropisomer, axis not shown) [Compound 21b, (R)-4-(2-acryloyl-1,2,3,4-tetrahydroisoquinolin-5-yl)-3-chloro-5,6-difluoro-2-methyl-1H-indole-7-carboxamide], the IC50 (in experiment [1]; against BTK) was < 10 nM in each case.
With `C=CC(=O)N1CCc2c(cccc2-c2c(F)c(F)c(C(N)=O)c3[nH]c(C)c(Cl)c23)C1` (atropisomer, axis not shown) [Compound 21c, (S)-4-(2-acryloyl-1,2,3,4-tetrahydroisoquinolin-5-yl)-3-chloro-5,6-difluoro-2-methyl-1H-indole-7-carboxamide], the IC50 (in experiment [1]; against BTK) was ≥ 100 nM throughout.
As for `C=CC(=O)N1C[C@H]2CCN(c3c(F)cc(C(N)=O)c4[nH]c(C)c(Cl)c34)C[C@@H]2C1` (racemic) [Compound 39, 4-(trans-2-acryloyloctahydro-5H-pyrrolo[3,4-c]pyridin-5-yl)-3-chloro-5-fluoro-2-methyl-1H-indole-7-carboxamide], the half-maximal inhibitory concentration (IC50) in experiment [1] (Homo sapiens, Ramos) is ≥ 100 nM; against BTK, ≥ 100 nM.
Consider `C=CC(=O)N1CCc2c(cccc2-c2c(F)cc(C(N)=O)c3[nH]c(C)c(Cl)c23)C1` (single isomer, unassigned) [Compound 20c], for which the IC50 (in experiment [1]; against BTK) was ≥ 100 nM throughout.
Regarding `C=CC(=O)N1CCc2c(-c3c(F)cc(C(N)=O)c4[nH]c(C)c(Cl)c34)cccc2[C@H]1C` (single isomer, unassigned) [Compound 22b], the IC50 (in experiment [1]; against BTK) was ≥ 100 nM each time.
In the case of `C=CC(=O)N1CCc2c(-c3c(F)cc(C(N)=O)c4[nH]c(C)c(Cl)c34)cccc2[C@@H]1C` (single isomer, unassigned) [Compound 22c], the IC50 in experiment [1] (Homo sapiens, Ramos) was ≥ 100 nM; against BTK it was ≥ 100 nM.
Regarding `C=CC(=O)N1CCc2c(-c3c(F)cc(C(N)=O)c4[nH]c(C)c(Cl)c34)cccc2[C@@H]1C` (single isomer, unassigned) [Compound 22d], the IC50 (in experiment [1]; against BTK) was ≥ 100 nM each time.
Regarding `C=CC(=O)N1CCc2c(-c3c(F)cc(C(N)=O)c4[nH]c(C)c(Cl)c34)cccc2[C@H]1C` (single isomer, unassigned) [Compound 22e], the IC50 (in experiment [1]; at BTK) was < 10 nM each time.
For the molecule `C=CC(=O)N1Cc2cccc(-c3c(F)cc(C(N)=O)c4[nH]c(C)c(Cl)c34)c2C2(CC2)C1` (single isomer, unassigned) [Compound 24c], the IC50 is ≥ 100 nM in experiment [1] (Homo sapiens, Ramos) and 10 to 100 nM on BTK.
As to `C=CC(=O)N1Cc2cccc(-c3c(F)cc(C(N)=O)c4[nH]c(C)c(Cl)c34)c2C2(CC2)C1` (single isomer, unassigned) [Compound 24d], the IC50 (in experiment [1]; against BTK) was ≥ 100 nM each time.
As to `C=CC(=O)N1CCCc2c(cccc2-c2c(F)cc(C(N)=O)c3[nH]c(C)c(Cl)c23)C1` (single isomer, unassigned) [Compound 25c], the half-inhibitory concentration (IC50) in experiment [1] (Homo sapiens, Ramos) is ≥ 100 nM; on BTK, ≥ 100 nM.
Take `C=CC(=O)N1CCCc2c(cccc2-c2c(F)cc(C(N)=O)c3[nH]c(C)c(Cl)c23)C1` (single isomer, unassigned) [Compound 25d]: the IC50 in experiment [1] is ≥ 100 nM; against BTK it was 10 to 100 nM.
On to `C=CC(=O)N1CCC2CCN(c3c(F)cc(C(N)=O)c4[nH]c(C)c(Cl)c34)CC21` (single isomer, unassigned) [Compound 29b, 4-(1-acryloyloctahydro-6H-pyrrolo[2,3-c]pyridin-6-yl)-3-chloro-5-fluoro-2-methyl-1H-indole-7-carboxamide], for which the figures for the IC50 (in experiment [1]; on BTK) were 10 to 100 nM and < 10 nM, respectively.
`C=CC(=O)N1CCCC(c2c(F)cc(C(N)=O)c3[nH]c(C)c(Cl)c23)C1` (stereo not drawn) [Compound 2, 4-(1-acryloylpiperidin-3-yl)-3-chloro-5-fluoro-2-methyl-1H-indole-7-carboxamide]: the concentration for half-maximal inhibition (IC50) is < 10 nM in experiment [1] (Homo sapiens, Ramos) and < 10 nM against BTK.
Take `C=CC(=O)N1CCCC(c2c(F)c(F)c(C(N)=O)c3[nH]c(C)c(Cl)c23)C1` (stereo not drawn) [Compound 3, 4-(1-acryloylpiperidin-3-yl)-3-chloro-5,6-difluoro-2-methyl-1H-indole-7-carboxamide]: the IC50 in experiment [1] (Homo sapiens, Ramos) was < 10 nM; against BTK, < 10 nM.
Turning to `C=CC(=O)N1CCC=C(c2c(F)c(F)c(C(N)=O)c3[nH]c(C)c(C#N)c23)C1` [Compound 5, 4-(1-acryloyl-1,2,5,6-tetrahydropyridin-3-yl)-3-cyano-5,6-difluoro-2-methyl-1H-indole-7-carboxamide], the IC50 is 10 to 100 nM in experiment [1] (Homo sapiens, Ramos) and < 10 nM on BTK.
As to `C#CC(=O)N1CCC[C@H](c2c(F)cc(C(N)=O)c3[nH]c(C)c(Cl)c23)C1` [Compound 7, (R)-3-chloro-5-fluoro-2-methyl-4-(1-propioloylpiperidin-3-yl)-1H-indole-7-carboxamide], the 50% inhibitory concentration (IC50) in experiment [1] (Homo sapiens, Ramos) is < 10 nM; against BTK, < 10 nM.
As to `C#CC(=O)N1CCC[C@@H](c2c(F)cc(C(N)=O)c3[nH]c(C)c(Cl)c23)C1` [Compound 8, (S)-3-chloro-5-fluoro-2-methyl-4-(1-propioloylpiperidin-3-yl)-1H-indole-7-carboxamide], the IC50 in experiment [1] (Homo sapiens, Ramos) is < 10 nM; against BTK, < 10 nM.
Take `C=CC(=O)N1CC(F)CC(c2c(F)cc(C(N)=O)c3[nH]c(C)c(Cl)c23)C1` (stereo not drawn) [Compound 9, 4-(1-acryloyl-5-fluoropiperidin-3-yl)-3-chloro-5-fluoro-2-methyl-1H-indole-7-carboxamide]: the IC50 was < 10 nM in experiment [1] (Homo sapiens, Ramos) and < 10 nM against BTK.
Take `C=CC(=O)N1CCCC(c2c(F)c(F)c(C(N)=O)c3[nH]c(C)c(C#N)c23)C1` (stereo not drawn) [Compound 10, 4-(1-acryloylpiperidin-3-yl)-3-cyano-5,6-difluoro-2-methyl-1H-indole-7-carboxamide]: the IC50 in experiment [1] (Homo sapiens, Ramos) was in the range of 10 to 100 nM; on BTK, 10 to 100 nM.
